Molecular target: M. tb PII (GlnB) (Mycobacterium tuberculosis, UniProt P9WN31)
Sequence (P9WQ65 417-477): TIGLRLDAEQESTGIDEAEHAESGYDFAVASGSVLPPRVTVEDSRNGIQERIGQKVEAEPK
Sequence (P9WN31 whole entry): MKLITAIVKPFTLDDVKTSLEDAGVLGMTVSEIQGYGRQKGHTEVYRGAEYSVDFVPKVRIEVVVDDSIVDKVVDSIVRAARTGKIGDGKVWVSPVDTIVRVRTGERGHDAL

## O=C(O)CCC(=O)C(=O)O [2-oxoglutarate]
  Ni-NTA pull-down of AmtCTR by His-PII, SDS-PAGE: PII is able to interact with AmtCTR being negatively modulated by 2-OG

Reference: article PMC11001197, “The PII protein interacts with the Amt ammonium transport and modulates nitrate/nitrite assimilation in mycobacteria” (Frontiers in Microbiology, 2024)
